Source: US20250205173A1, “DERMAL AND TRANSDERMAL ADMINISTRATION OF TREPROSTINIL AND SALTS THEREOF” (CORSAIR PHARMA, INC., priority 2019, published 2025)

Key:
[1] = Skin irritation study of treprostinil reservoir-type transdermal patch, Draize scale; assay type: in vivo, Göttingen Minipigs; set-up: key to Edema score: 0: No edema; 1: Very slight edema (barely perceptible); 2: Slight edema (edges of area well defined by definite raising); 3: Moderate edema (raised about 1 mm); 4: Severe edema (raised >1 mm and extending beyond area of exposure); key to Erythema score: 0: No erythema; 1: Very slight erythema (barely perceptible); 2: Well-defined erythema; 3: Moderate to severe erythema; 4: Severe erythema (beet redness) to slight eschar formation (injuries in depth); conditions: for Edema score / Erythema score: 10 mg patch
Description: The pig is frequently used in studies involving dermal or transdermal administration of a drug because the skin of the pig is very similar to human skin. Skin irritation following transdermal administration of treprostinil from a reservoir-type transdermal patch was assessed in Göttingen Minipigs® (Marshall BioResources, North Rose, New York). The treprostinil-containing reservoir transdermal patch was a 32 cm^2 circular patch with a 6 cm^2 gel-sealed area and a 26 cm^2 peripheral skin-adhesive area. The placebo reservoir transdermal patch was a 39 cm^2 oval patch with a 12 cm^2 gel-sealed area and a 27 cm^2 peripheral skin-adhesive area. The reservoir of the patches comprised a gel composed of hydroxypropyl cellulose and containing ethanol, isopropyl myristate and 10 mg treprostinil or no active agent for the placebo patch. The reservoir was packaged by heat seal between a backing layer composed of metalized polyester/ethylene-vinyl acetate and a semi-permeable microporous membrane composed of polyethylene. A transparent release liner that protected the gel reservoir area and the peripheral adhesive area was peeled off immediately prior to patch application. The patches had the structure of the patch depicted in FIG. 1. To facilitate patch application (dosing) and to ensure animal safety during the dosing procedure, the minipigs were sedated with the anesthetic Telazol, if necessary, via intramuscular injection at an initial dose of 3-6 mg/kg. Any use of Telazol is indicated in the study data. Both the treprostinil-containing and placebo transdermal patches were applied to the dorsal surface of each of three female Göttingen Minipigs® weighing about 15-25 kg and were left in place for 24 hr. The dosing sites (the entire flank on both sides of the dorsal midline, caudal to the scapula) were carefully clipped with an electric clipper on the day prior to application of the patches and then were carefully washed with room temperature (RT) saline to remove dirt and debris. The prepared area was large enough to accommodate several patches. The dosing sites then were carefully shaved smooth with a razor while not causing any nick or cut. RT saline, but no shaving cream, could be used to assist shaving. The dosing sites were then wrapped with bandaging that was secured with a non-irritating, semi-occlusive tape (e.g., Elastikon tape). The minipigs were then fitted with a jacket. On the day of application of the patches, the jacket and wrapping were removed from the minipigs. The dosing sites were visually inspected to confirm the absence of any abrasion or obvious dermal pathology, and were gently cleaned with an isopropanol wipe and were then allowed to air-dry for at least 5 min. The patches were applied to areas of the skin without any abrasion or obvious dermal pathology by applying firm finger pressure to the peripheral adhesive area of the patches to ensure firm adherence of the peripheral area to the skin. To prevent detachment of the patches, TegadermTM dressing (or an equivalent transparent adhesive dressing, such as PatchProtectTM dressing) was applied over the patches, extending at least 2 inches beyond the edges of the patches and adhering to the peripheral area of the patches and to the skin surrounding the patches. The sites of patch application were wrapped with gauze or […] bandaging (or equivalent) that was secured with a non-irritating, semi-occlusive tape (e.g., Elastikon tape). The minipigs were then fitted with a jacket to prevent patch disturbance. The patches were kept in place at the dosing sites for 24 hr. […] Photographs of the sites of patch application were taken just prior to patch removal, following patch removal, and at 2 (±15 min), 24 (±1 hr), 48, 72, 96, 120, 144 and 168 hours after patch removal. The following scores are based on the Draize scale for scoring skin irritation [J. Draize et al., J. Pharmacol. Exp. Ther., 82:377-390 (1944)]. [table] [table]

[2] = Pharmacokinetics of transdermally delivered treprostinil from reservoir-type patch; conditions: Göttingen, minipig, in vivo, four patches, total 160 mg treprostinil, in place 72 hr, two male minipigs
From the text: Pharmacokinetics (PK) following transdermal administration of treprostinil from a reservoir-type transdermal patch was studied in Göttingen Minipigs® (Marshall BioResources). The treprostinil-containing reservoir transdermal patch was a 39 cm^2 oval patch with a 12 cm^2 gel-sealed area and a 27 cm^2 peripheral skin-adhesive area. […] Naïve male Göttingen Minipigs® about 6 months of age at receipt and weighing about 23 kg at patch application were used in the PK study. To facilitate application of the transdermal patch, the minipigs were sedated with Telazol at 3 mg/kg via intramuscular injection. Prior to patch application the dosing sites on the minipigs were prepared similarly as described in Example 2, and patch application was performed similarly as described in Example 2 except that bandaging was reapplied to the sites of patch application once a day. Four transdermal patches containing a total of 160 mg treprostinil were applied at the same time to the dorsal surface of each of two minipigs and were left in place for 72 hr. Blood samples were collected within 1 hr prior to application of the patches; at 3, 6, 12, 24, 48 and 72 hours after application of the patches; and at 0.167, 0.5, 1, 2, 4 and 6 hours after removal of the patches.

[3] = In vitro skin permeability assay, vertical Franz diffusion cell; assay type: in vitro ADME; conditions: human epidermis from different donors, 32° C., N=4 per donor
Description: A skin permeability assay was performed using a vertical Franz diffusion cell having a diffusion area of 0.64 cm^2 and a volume of 7.5 mL. The assay was conducted at 32° C. with continuous stirring. Heat-separated human cadaver epidermis was used in the assay, the epidermis being stored at −20° C. after the heat-stripping procedure. The human epidermis was thawed prior to being mounted on the diffusion cell. Treprostinil was applied on the skin, and the diffusion cell was closed by screw-cap. At various time intervals, whole medium or receptor medium was replaced by fresh medium. Part of the collected medium was used to calculate the cumulative skin permeability of treprostinil at 72 hours. The skin permeability of treprostinil was evaluated using human epidermis from different donors. N=4 replicates were performed for treprostinil tested on human epidermis from a particular donor.

[4] = cited from earlier work
[5] = cited from earlier work; remark: listed apart in the source
[6] = minipig 601, 2 hr post patch removal, 24 hr
[7] = minipig 601, 24 hr post patch removal, 24 hr
[8] = minipig 601, 48 hr post patch removal, 24 hr
[9] = minipig 601, 72 hr post patch removal, 24 hr
[10] = minipig 601, 96 hr post patch removal, 24 hr
[11] = minipig 601, 120 hr post patch removal, 24 hr
[12] = minipig 601, before patch application
[13] = minipig 602, 2 hr post patch removal, 24 hr
[14] = minipig 602, 24 hr post patch removal, 24 hr
[15] = minipig 602, 48 hr post patch removal, 24 hr
[16] = minipig 602, 72 hr post patch removal, 24 hr
[17] = minipig 602, 96 hr post patch removal, 24 hr
[18] = minipig 602, 120 hr post patch removal, 24 hr
[19] = minipig 602, before patch application
[20] = minipig 603, 2 hr post patch removal, 24 hr
[21] = minipig 603, 24 hr post patch removal, 24 hr
[22] = minipig 603, 48 hr post patch removal, 24 hr
[23] = minipig 603, 72 hr post patch removal, 24 hr
[24] = minipig 603, 96 hr post patch removal, 24 hr
[25] = minipig 603, 120 hr post patch removal, 24 hr
[26] = minipig 603, before patch application

SMILES: CCCCC[C@H](O)CC[C@@H]1[C@H]2Cc3cccc(OCC(=O)O)c3C[C@H]2C[C@H]1O [Treprostinil]
- Edema score [1, 6]: 0
- Erythema score [1, 6]: 1
- Edema score [1, 7]: 0
- Erythema score [1, 7]: 1
- Edema score [1, 8]: 0
- Erythema score [1, 8]: 1
- Edema score [1, 9]: 0
- Erythema score [1, 9]: 0
- Edema score [1, 10]: 0
- Erythema score [1, 10]: 0
- Edema score [1, 11]: 0
- Erythema score [1, 11]: 0
- Edema score [1, 12]: 0
- Erythema score [1, 12]: 0
- Edema score [1, 13]: 0
- Erythema score [1, 13]: 1
- Edema score [1, 14]: 0
- Erythema score [1, 14]: 1
- Edema score [1, 15]: 0
- Erythema score [1, 15]: 0
- Edema score [1, 16]: 0
- Erythema score [1, 16]: 0
- Edema score [1, 17]: 0
- Erythema score [1, 17]: 0
- Edema score [1, 18]: 0
- Erythema score [1, 18]: 0
- Edema score [1, 19]: 0
- Erythema score [1, 19]: 0
- Edema score [1, 20]: 0
- Erythema score [1, 20]: 2
- Edema score [1, 21]: 0
- Erythema score [1, 21]: 2
- Edema score [1, 22]: 0
- Erythema score [1, 22]: 0
- Edema score [1, 23]: 0
- Erythema score [1, 23]: 0
- Edema score [1, 24]: 0
- Erythema score [1, 24]: 0
- Edema score [1, 25]: 0
- Erythema score [1, 25]: 0
- Edema score [1, 26]: 0
- Erythema score [1, 26]: 0
- skin irritation (summary) ([1]; reservoir patch 10 mg treprostinil with isopropyl myristate and ethanol, in place 24 hr, three female minipigs): did not cause significant skin irritation
- concentration at 72 hr ([2]; other: transdermal (reservoir-type patch), read-out: C72 hr): 2.4 to 4.9 ng/mL
- Cmax ([2]; topical or ocular): 20.8 to 27.6 ng/mL
- Tmax ([2]; topical or ocular): 6 h
- AUC(0-t) ([2]; topical or ocular, read-out: AUC0-72): 429 to 946 ng·h/mL
- half-life ([2]; topical or ocular, read-out: half-life (T1/2) during treatment): 28 to 35 h
- cumulative skin permeability at 72 hours [3]: high
- peak-to-trough ratio of plasma concentrations ([4]; administered by inhalation): large
- PAH patients who cannot take inhaled treprostinil due to irritation to the lungs ([4]; inhalation): about 50%
- systemic half-life ([5]; free acid, due to significant metabolism): very short
- absolute oral bioavailability ([5]; treprostinil as the free acid, oral): less than 10%
